Structures can show the parent of a compound that is named as a salt. Values belong to the compound of their own block, whether it stands above or below them.
Legend:
[1] = In vitro release through dialysis bag with fetal bovine serum; format: physicochemical; conditions: fetal bovine serum mixture, PBS pH 7.4 with 0.06N HCl, 37 °C
Method: To setup an in vitro release system, 0.5 mL of liposomal fingolimod formulation prepared according to Example 1 and 0.5 mL of free fingolimod hydrochloride were each mixed with 0.5 mL of fetal bovine serum. The free fingolimod/serum mixture and liposomal fingolimod/serum mixture were placed in separate dialysis bags (Spectra/Pro®6 dialysis membrane, MWCO 50 kDa, Spectrum Labs) and both ends of the dialysis bags were sealed. Each dialysis bag was immersed in 15 mL PBS at pH 7.4, containing 0.06N HCl, in a 50-mL centrifuge tube and incubated at 37±1° C. water bath. At designated time points after incubation (1, 2, 4, 8 and 24 hours), 0.5 mL aliquot from the 15-mL PBS was sampled and 0.5 mL of fresh PBS was added to replenish the sampling aliquot each time. Drug concentrations of the sampling aliquots at each time point were analyzed using HPLC to create the in vitro release profile of the tested formulations.

[2] = Particle size distribution by dynamic light scattering; format: physicochemical
Method: (§1) The encapsulation efficiency was calculated by the drug to lipid molar ratio (D/L) of the fingolimod hydrochloride encapsulated liposomes compared to the nominal D/L of reaction mixture, which was calculated by dividing the concentration of fingolimod hydrochloride by the lipid concentration of empty liposome. The particle size distribution was measured by a dynamic light scattering instrument (Zetasizer Nano-ZS90, Malvern).
as §1, with “ozanimod” for “fingolimod hydrochloride”

[3] = Drug loading of liposomes: drug to lipid molar ratio and encapsulation efficiency (UV/Vis); format: physicochemical; conditions: fingolimod; HSPC/cholesterol/DPPG (59.5/39.6/0.9); trapping agent 2: 300 mM ammonium sulfate
[4] = as above; format: physicochemical
Method: (§2) Empty liposomes were prepared by a lipid film hydration-extrusion method. HSPC, cholesterol, and DSPE-PEG2000 (mole percent 59.5/39.6/0.9) were dissolved in chloroform and a thin lipid film was formed by removing the organic solvent under vacuum in a rotary evaporator. The dry lipid film was hydrated in 300 mM ammonium sulfate at 60° C. for 30 min and the empty liposomes were formed with ammonium sulfate encapsulated in the aqueous core. After six freeze-thaw cycles between liquid nitrogen and water at 60° C., the empty liposomes were subsequently extruded ten times through polycarbonate filter membranes with a pore size of 0.2 μm. Unencapsulated ammonium sulfate was removed by dialysis against a 9.4% sucrose solution.
(§3) A reaction mixture containing 7.8 mg/mL of fingolimod hydrochloride (MedChem Express), 20.7 mM of lipids of empty liposomes and 50 mM histidine buffer (pH 7) was incubated at 60° C. for 15 min. The unencapsulated fingolimod hydrochloride was separated by a Sephadex™ G-50 Fine gel (GE Healthcare) or dialysis bag (Spectrum Labs) against a 9.4% sucrose solution to obtain the liposomal fingolimod formulation. The concentrations of the encapsulated fingolimod hydrochloride and the lipid of the liposomal fingolimod formulation were measured using an ultraviolet/visible (UV/Vis) spectrophotometer to calculate the drug to lipid molar ratio (D/L) of the liposomal fingolimod formulation.
as §1
as §2, with “DPPG” for “DSPE-PEG2000”
as §3, with “7.2” for “7.8”, “ozanimod (DC Chemicals), 20.6” for “fingolimod hydrochloride (MedChem Express), 20.7”, “6.5)” for “7)”, “ozanimod” for “fingolimod hydrochloride”, “ozanimod” for “fingolimod”
as §1, with “ozanimod” for “fingolimod hydrochloride”
The liposome formulations were prepared according to Example 1, with the following trapping agents: (1) 75 mM of triethylammonium sucrose octasulfate, (2) 300 mM of ammonium sulfate, (3) 200 mM ammonium phosphate and (4) 7.0 mM of dextran sulfate.

[5] = Pharmacokinetics study of liposomal fingolimod in rats; format: in vivo, Sprague-Dawley rats; conditions: IV 5 mg/Kg
Method: An in vivo PK evaluation of the liposomal fingolimod formulation was performed using 7- to 8-week-old female Sprague-Dawley rats. The rats were housed in a holding room which operated on a 12-hr light/12-hr dark circadian cycle with free access to water and food.
The rats were divided into three groups (n=4 in each group), one group received intravenous (IV) injection of 5 mg/Kg of free fingolimod hydrochloride, prepared by dissolving the fingolimod hydrochloride in a 9.4% sucrose solution containing 5% dimethyl sulfoxide with a final concentration of 2.00 mg/mL. The second group received intravenous (IV) injection of 5 mg/Kg of liposomal fingolimod formulation prepared according to Example 1. The third group received subcutaneous (SC) injection of 5 mg/Kg of liposomal fingolimod formulation prepared according to Example 1. Blood samples were collected at 5, 15 min, 1, 2, 4, 8, 24, 48, 72, and 96 hours post-injection. Plasma samples were obtained by centrifugation, kept frozen at -80° C. and analyzed using a noncompartmental analysis model in PKSolver (Comput. Methods Programs Biomed. 2010; 99(3):306-314).

[6] = DMPC/cholesterol/DSPE-PEG2000 (59.5/40/0.5), trapping agent 2: 300 mM ammonium sulfate
[7] = DPPC/cholesterol/DSPE-PEG2000 (55.9/38.7/5.4), trapping agent 3: 200 mM ammonium phosphate
[8] = HSPC/cholesterol/DSPE-PEG2000 (59.5/39.6/0.9), trapping agent 1: 75 mM triethylammonium sucrose octasulfate
[9] = HSPC/cholesterol/DSPE-PEG2000 (59.5/39.6/0.9), trapping agent 2: 300 mM ammonium sulfate
[10] = DSPC/cholesterol/DSPE-PEG2000 (59.5/39.6/0.9), trapping agent 4: 7.0 mM dextran sulfate
[11] = HSPC/cholesterol (60/40), trapping agent 1: 75 mM triethylammonium sucrose octasulfate
[12] = ozanimod, HSPC/cholesterol/DPPG (59.5/39.6/0.9), trapping agent 2: 300 mM ammonium sulfate

- fingolimod released through the dialysis bag within 4 hours ([1]; 4 hours): ~80%
- release through the dialysis bag over 24 hours ([1]; 24 hours): > 80%
- Average Particle Size [2, 6]: 154.5 nm
- Average Particle Size [2, 7]: 143.1 nm
- Average Particle Size [2, 8]: 288.0 nm
- Average Particle Size [2, 9]: 162.1 nm
- Average Particle Size ([2]; fingolimod, HSPC/cholesterol/DPPG (59.5/39.6/0.9), trapping agent 2: 300 mM ammonium sulfate): 191.4 nm
- Encapsulation Efficiency [3]: 100%
- Purified D/L [3]: 1.01 mole/mole
- Encapsulation Efficiency [4, 6]: 100%
- Purified D/L [4, 6]: 1.13 mole/mole
- Encapsulation Efficiency [4, 7]: 99%
- Purified D/L [4, 7]: 0.88 mole/mole
- Encapsulation Efficiency [4, 8]: 100%
- Purified D/L [4, 8]: 1.28 mole/mole
- Encapsulation Efficiency [4, 9]: 100%
- Purified D/L [4, 9]: 1.11 mole/mole
- time after which eliminated from the circulation [5]: about 70 hours
- AUC0-t/AUC0-inf ratio ([5]; 96 hours post-injection): approximately 100%
Compound: CCCCCCCCc1ccc(CCC(N)(CO)CO)cc1 [Fingolimod HCl, fingolimod hydrochloride]

- Average Particle Size [2, 10]: 364.2 nm
- Average Particle Size [2, 11]: 215.2 nm
- Average Particle Size [2, 12]: 186.7 nm
- Encapsulation Efficiency [4, 10]: 79%
- Purified D/L [4, 10]: 0.35 mole/mole
- Encapsulation Efficiency [4, 11]: 100%
- Purified D/L [4, 11]: 0.49 mole/mole
- Encapsulation Efficiency [4, 12]: 100%
- Purified D/L [4, 12]: 0.87 mole/mole
Compound: CC(C)Oc1ccc(-c2nc(-c3cccc4c3CC[C@@H]4NCCO)no2)cc1C#N [Ozanimod, ozanimod]

Source: US12274785B2, “Sustained-release pharmaceutical compositions comprising an immunomodulating agent and uses thereof” (TAIWAN LIPOSOME CO., LTD., priority 2018, dated 2025)
